Biological target: T1, TxGH116 β-glucosidase (Thermoanaerobacterium xylanolyticum, UniProt F6BL85, D593N)
T1 construct: gene Thexy_2211; pET30a/TxGH116Δ1-18 (residues 1-18 removed), E. coli BL21(DE3), IMAC, tag cut with enterokinase, Superdex 200
Experiment: X-ray crystal structure, soaked crystal
Type: binding
Conditions: pH 5.5

[1] = 200 mM soak, subsites –1 and +1 (Michaelis complex)

T1 sequence (F6BL85 entry or part of it D593N): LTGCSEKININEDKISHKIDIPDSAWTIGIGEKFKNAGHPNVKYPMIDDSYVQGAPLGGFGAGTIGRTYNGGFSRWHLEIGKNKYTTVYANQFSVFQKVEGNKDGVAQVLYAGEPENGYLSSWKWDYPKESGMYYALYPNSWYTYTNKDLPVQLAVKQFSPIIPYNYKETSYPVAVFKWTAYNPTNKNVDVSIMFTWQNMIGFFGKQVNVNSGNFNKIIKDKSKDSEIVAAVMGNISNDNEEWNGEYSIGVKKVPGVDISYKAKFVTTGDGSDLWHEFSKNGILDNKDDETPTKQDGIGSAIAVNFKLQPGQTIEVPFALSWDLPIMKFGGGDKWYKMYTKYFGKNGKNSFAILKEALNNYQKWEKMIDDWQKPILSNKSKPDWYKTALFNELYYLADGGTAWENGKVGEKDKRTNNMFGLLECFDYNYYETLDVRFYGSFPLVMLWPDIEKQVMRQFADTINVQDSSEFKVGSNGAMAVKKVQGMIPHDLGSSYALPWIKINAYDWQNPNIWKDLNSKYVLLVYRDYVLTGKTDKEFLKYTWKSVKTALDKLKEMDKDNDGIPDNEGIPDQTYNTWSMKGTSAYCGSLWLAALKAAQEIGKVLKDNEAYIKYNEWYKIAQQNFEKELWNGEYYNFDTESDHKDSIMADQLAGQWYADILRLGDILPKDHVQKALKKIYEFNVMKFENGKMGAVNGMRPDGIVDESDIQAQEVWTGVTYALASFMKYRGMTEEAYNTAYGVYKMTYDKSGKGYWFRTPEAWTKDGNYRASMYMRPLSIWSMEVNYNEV

O=[N+]([O-])c1ccc(O[C@@H]2O[C@H](CO)[C@@H](O)[C@H](O)[C@H]2F)c([N+](=O)[O-])c1 [2,4-dinitrophenyl 2-deoxy-2-fluroglucopyranoside]
X-ray crystal structure, soaked crystal (covalent 2-deoxy-2-fluoroglucosyl-enzyme at nucleophile E441, 10 mM soak): The covalent complex of TxGH116 D593N with G2F exhibits an overall structure

OC[C@H]1O[C@@H](O[C@H]2[C@H](O)[C@@H](CO)OC(O)[C@@H]2O)[C@H](O)[C@@H](O)[C@@H]1O (stereo partly drawn) [laminaribiose]
X-ray crystal structure, soaked crystal [1]: The TxGH116 D593N variant with laminaribiose (Figure 2B) displays the glycosidic oxygen

OC[C@H]1O[C@@H](O[C@H]2[C@H](O)[C@@H](O)C(O)O[C@@H]2CO)[C@H](O)[C@@H](O)[C@@H]1O (stereo partly drawn) [cellobiose]
X-ray crystal structure, soaked crystal [1]: The structure of TxGH116 D593N with cellobiose shows the same interactions
